Values after ≈ are worked out from the molar mass of the structure shown. Like-named read-outs stand apart in the source and are kept apart here. Bridge positions count the residues as written; N and C are the ends. Ends that are not written are not given here. Peptide text beside a SMILES is read from it.
Assays:
Assay type in all cases: cell-based
C. albicans (ATCC64549) = tested on: C. albicans (ATCC64549)
Procedure: (§1) In the examples, the minimal microbicidal concentrations (MMC) and minimal inhibitory concentrations (MIC) were determined as follows, unless otherwise specified in the examples. Bacterial or fungal strains were cultured in BHI medium over night at 37° C. A volume of the culture was transferred to a new tube with BHI and incubated for two more hours. Thereafter the cells were spun down and the pellet was suspended in BHI medium diluted 1/100 (1% BHI). The concentration of bacterial or fungal cells was spectrophotometrically determined at 650 nm. The microbial concentrations were also determined by viable counts. Peptides serially diluted in 1% BHI by twofold or tenfold steps were added in triplicate to the wells of a microtiterplate (200 μl per well). The bacterial or fungal cell solutions were added in 10 μl volumes to give a final concentration of approximately 1-5×10^5 cells per ml in the well. The microplate was incubated at 37° C. in a humid chamber for two hours. Thereafter 5 μl was taken from each well and added as a drop onto a blood agar plate and incubated over night at 37° C. The microplate was incubated for another 20 hours at 37° C. and thereafter analysed spectrophotometrically at 650 nm in a microplate reader (Emax, Molecular Devices, USA). The concentration of peptide causing a 99% reduction of the inoculum after 2 hours of incubation was defined as the MMC99%. The MIC value was defined as the concentration giving no increase in the absorbance value above the background level after 20 hours of incubation.
(§2) C. albicans (ATCC64549) and E. coli O6, respectively, were incubated with the different peptides. The experiments were performed with 1, 10, 25 and 100 μg/ml of peptide.

E. coli O6 = tested on: E. coli O6
Procedure: as §1, §2

[1] = tested on: C. albicans yeast cells (ATCC64549); assay: killing and growth inhibition of C. albicans at pH 4.5 (Example 11); design: key to C. albicans inhibition (OD650): + = no increase in OD650 is seen; − = OD650 continues to increase; conditions: pH 4.5, 1% BHI, 25 μg/ml of the peptide; for C. albicans inhibition (OD650): OD650 after an additional 18 hours; for C. albicans killing: 99% / C. albicans killing: 100%: 2 hours
Procedure: C. albicans yeast cells (ATCC64549) were incubated for 2 hours at pH 4.5 in BHI medium diluted to 1% of the original concentration containing 25 µg/ml of the peptide. Thereafter the fungal solutions were cultured on blood agar plates. OD650 was measured after incubation during an additional 18 hours. The fungicidal effect of the peptides on C. albicans was determined as the ability of the peptide to kill 100% and 99%, respectively, of the fungus, while the growth inhibitory effect was determined by measuring the OD650. An inhibitory effect existed when no increase in OD650 was recorded.

E. faecalis = assay: killing of bacteria at fixed peptide concentration, E. faecalis (Example 12); conditions: peptide 25 μg/ml
Procedure: (§3) In this example, the peptides according to the invention were used to study the effect on the killing of different bacteria.
(§4) The peptides were used at a concentration of 25 μg/ml.

S. epidermis = assay: killing of bacteria at fixed peptide concentration, S. epidermis (Example 12); conditions: peptide 25 μg/ml
Procedure: as §3, §4

S. aureus = assay: killing of bacteria at fixed peptide concentration, S. aureus (Example 12); conditions: peptide 25 μg/ml
Procedure: as §3, §4

K. pneumoniae = assay: killing of bacteria at fixed peptide concentration, K. pneumoniae (Example 12); conditions: peptide 25 μg/ml
Procedure: as §3, §4

P. aeruginosa = assay: killing of bacteria at fixed peptide concentration, P. aeruginosa (Example 12); conditions: peptide 25 μg/ml
Procedure: as §3, §4

[2] = C. albicans, tested at 1, 10, 25 and 100 μg/ml of peptide
[3] = E. coli O6, tested at 1, 10, 25 and 100 μg/ml of peptide

CSCC[C@@H]1NC(=O)[C@@H](NC(=O)[C@H](CCCNC(=N)N)NC(=O)[C@@H]2CC(=O)NCCCC[C@H](NC(=O)[C@H](CCCCN)NC(=O)[C@@H](NC(C)=O)[C@@H](C)O)C(=O)N[C@@H](Cc3ccccc3)C(=O)N[C@@H](CCC(N)=O)C(=O)N[C@@H](Cc3c[nH]c4ccccc34)C(=O)N2)CCCCNC(=O)C[C@@H](C(=O)N[C@@H](CCCNC(=N)N)C(N)=O)NC(=O)[C@H](CCCCN)NC(=O)[C@H](CCCNC(=N)N)NC1=O [Peptide 61] (Ac-TKKFQWDRKMRKDR-NH2; lactam 3-7, 9-13; N-terminus and C-terminus assumed)
MIC (C. albicans (ATCC64549); ATCC64549): 10 mg/L (≈ 5.19 µM)
MMC99% (C. albicans (ATCC64549); [2]): 10 µg/mL
MMC99% (E. coli O6; [3]): 10 µg/mL
MIC (E. coli O6; O6): 10 mg/L (≈ 5.19 µM)
C. albicans inhibition (OD650) [1]: +
C. albicans killing: 99% [1]: + (+ = 100/99% of the bacteria are killed)
C. albicans killing: 100% [1]: − (− = less than 100/99% of the bacteria are killed)
killing of bacteria: E. faecalis (E. faecalis): + (+ = 99% of the bacteria are killed)
killing of bacteria: S. epidermis (S. epidermis): + (+ = 99% of the bacteria are killed)
killing of bacteria: S. aureus (S. aureus): + (+ = 99% of the bacteria are killed)
killing of bacteria: K. pneumoniae (K. pneumoniae): + (+ = 99% of the bacteria are killed)
killing of bacteria: P. aeruginosa (P. aeruginosa): + (+ = 99% of the bacteria are killed)

QWQRNMRKVR [Peptide 40]
MIC (C. albicans (ATCC64549); ATCC64549): 25 mg/L
MMC99% (C. albicans (ATCC64549); [2]): 25 µg/mL
MMC99% (E. coli O6; [3]): >25 µg/mL
MIC (E. coli O6; O6): >25 mg/L
C. albicans inhibition (OD650) [1]: −
C. albicans killing: 99% [1]: − (− = less than 100/99% of the bacteria are killed)
C. albicans killing: 100% [1]: − (− = less than 100/99% of the bacteria are killed)
killing of bacteria: E. faecalis (E. faecalis): − (− = less than 99% of the bacteria are killed)
killing of bacteria: S. epidermis (S. epidermis): + (+ = 99% of the bacteria are killed)
killing of bacteria: S. aureus (S. aureus): − (− = less than 99% of the bacteria are killed)
killing of bacteria: K. pneumoniae (K. pneumoniae): − (− = less than 99% of the bacteria are killed)
killing of bacteria: P. aeruginosa (P. aeruginosa): − (− = less than 99% of the bacteria are killed)

Peptide 57: 14 amino acids, modified positions 18-31 of human lactoferrin; sequence only in sequence listing (TKKFQWQRNMRKVR)
MIC (C. albicans (ATCC64549); [2]): 10 mg/L
MMC99% (C. albicans (ATCC64549); [2]): 25 µg/mL
MIC (E. coli O6; [3]): 10 mg/L
MMC99% (E. coli O6; [3]): 10 µg/mL
C. albicans inhibition (OD650) [1]: +
C. albicans killing: 99% [1]: + (+ = 100/99% of the bacteria are killed)
C. albicans killing: 100% [1]: + (+ = 100/99% of the bacteria are killed)
killing of bacteria: E. faecalis (E. faecalis): + (+ = 99% of the bacteria are killed)
killing of bacteria: S. epidermis (S. epidermis): + (+ = 99% of the bacteria are killed)
killing of bacteria: S. aureus (S. aureus): + (+ = 99% of the bacteria are killed)
killing of bacteria: K. pneumoniae (K. pneumoniae): + (+ = 99% of the bacteria are killed)
killing of bacteria: P. aeruginosa (P. aeruginosa): + (+ = 99% of the bacteria are killed)

FQWQRNMRKVR [Peptide 44]
MIC (C. albicans (ATCC64549); ATCC64549): 10 mg/L
MMC99% (C. albicans (ATCC64549); [2]): 10 µg/mL
MMC99% (E. coli O6; [3]): 10 µg/mL
MIC (E. coli O6; O6): 10 mg/L
C. albicans inhibition (OD650) [1]: −
C. albicans killing: 99% [1]: − (− = less than 100/99% of the bacteria are killed)
C. albicans killing: 100% [1]: − (− = less than 100/99% of the bacteria are killed)
killing of bacteria: E. faecalis (E. faecalis): + (+ = 99% of the bacteria are killed)
killing of bacteria: S. epidermis (S. epidermis): + (+ = 99% of the bacteria are killed)
killing of bacteria: S. aureus (S. aureus): + (+ = 99% of the bacteria are killed)
killing of bacteria: K. pneumoniae (K. pneumoniae): − (− = less than 99% of the bacteria are killed)
killing of bacteria: P. aeruginosa (P. aeruginosa): − (− = less than 99% of the bacteria are killed)

Ac-TKCFQWQRNMRKVR-NH2 [Peptide 51]
MIC (C. albicans (ATCC64549); ATCC64549): 10 mg/L
MMC99% (C. albicans (ATCC64549); [2]): 10 µg/mL
MMC99% (E. coli O6; [3]): 10 µg/mL
MIC (E. coli O6; O6): 10 mg/L
C. albicans inhibition (OD650) [1]: +
C. albicans killing: 99% [1]: + (+ = 100/99% of the bacteria are killed)
C. albicans killing: 100% [1]: + (+ = 100/99% of the bacteria are killed)
killing of bacteria: E. faecalis (E. faecalis): + (+ = 99% of the bacteria are killed)
killing of bacteria: S. epidermis (S. epidermis): + (+ = 99% of the bacteria are killed)
killing of bacteria: S. aureus (S. aureus): + (+ = 99% of the bacteria are killed)
killing of bacteria: K. pneumoniae (K. pneumoniae): + (+ = 99% of the bacteria are killed)
killing of bacteria: P. aeruginosa (P. aeruginosa): + (+ = 99% of the bacteria are killed)

EATKCFQWQRNMRKVR [Peptide 64]
MIC (C. albicans (ATCC64549); ATCC64549): 10 mg/L
MMC99% (C. albicans (ATCC64549); [2]): 25 µg/mL
MMC99% (E. coli O6; [3]): 10 µg/mL
MIC (E. coli O6; O6): 10 mg/L
C. albicans inhibition (OD650) [1]: +
C. albicans killing: 99% [1]: + (+ = 100/99% of the bacteria are killed)
C. albicans killing: 100% [1]: − (− = less than 100/99% of the bacteria are killed)
killing of bacteria: E. faecalis (E. faecalis): + (+ = 99% of the bacteria are killed)
killing of bacteria: S. epidermis (S. epidermis): + (+ = 99% of the bacteria are killed)
killing of bacteria: S. aureus (S. aureus): + (+ = 99% of the bacteria are killed)
killing of bacteria: K. pneumoniae (K. pneumoniae): − (− = less than 99% of the bacteria are killed)
killing of bacteria: P. aeruginosa (P. aeruginosa): − (− = less than 99% of the bacteria are killed)

TKCFQWQRNMRKVR [Peptide 50]
MIC (C. albicans (ATCC64549); ATCC64549): 10 mg/L
MMC99% (C. albicans (ATCC64549); [2]): 10 µg/mL
MMC99% (E. coli O6; [3]): 10 µg/mL
MIC (E. coli O6; O6): 10 mg/L
C. albicans inhibition (OD650) [1]: +
C. albicans killing: 99% [1]: + (+ = 100/99% of the bacteria are killed)
C. albicans killing: 100% [1]: + (+ = 100/99% of the bacteria are killed)
killing of bacteria: E. faecalis (E. faecalis): + (+ = 99% of the bacteria are killed)
killing of bacteria: S. epidermis (S. epidermis): + (+ = 99% of the bacteria are killed)
killing of bacteria: S. aureus (S. aureus): + (+ = 99% of the bacteria are killed)
killing of bacteria: K. pneumoniae (K. pneumoniae): + (+ = 99% of the bacteria are killed)
killing of bacteria: P. aeruginosa (P. aeruginosa): + (+ = 99% of the bacteria are killed)

Peptide 66: third embodiment, comprises a cysteine; sequence only in sequence listing (PEATKCFQWQRNMRKVR)
C. albicans inhibition (OD650) [1]: +
C. albicans killing: 99% [1]: + (+ = 100/99% of the bacteria are killed)
C. albicans killing: 100% [1]: − (− = less than 100/99% of the bacteria are killed)
killing of bacteria: E. faecalis (E. faecalis): + (+ = 99% of the bacteria are killed)
killing of bacteria: S. epidermis (S. epidermis): + (+ = 99% of the bacteria are killed)
killing of bacteria: S. aureus (S. aureus): + (+ = 99% of the bacteria are killed)
killing of bacteria: K. pneumoniae (K. pneumoniae): − (− = less than 99% of the bacteria are killed)
killing of bacteria: P. aeruginosa (P. aeruginosa): − (− = less than 99% of the bacteria are killed)

— patent publication US7803757B2, “Peptides based on the sequence of human lactoferrin and their use” (PharmaSurgics in Sweden AB, priority 1998, dated 2010)
